Measurements as given in patent publication US8889711B2, “Pyrazolopyridine derivatives as anticancer agent” (Pierre Fabre Medicament, priority 2009, dated 2014).

Legend:
ALK kinase = ALK kinase (Homo sapiens, UniProt Q9UM73); assay: Test to measure ALK kinase inhibition (GST-PLCγ1 substrate, anti-phosphotyrosine ELISA, luminescence); format: biochemical; settings: ALK kinase 180 ng/ml, 250 μM ATP, 30 minutes at 30° C.
Experimental: Test to Measure ALK Kinase Inhibition
A ViewPlate (Packard) is incubated with the GST-PLCγ1 substrate (purified recombinant form) at 0.1 mg/ml in phosphate buffer (PBS pH 7.4)(100 μl/well) for one hour under shaking. The plate is then saturated with a blocking solution containing 5% bovine serum albumin (BSA) (SIGMA) in PBS buffer pH 7.4.
After adding the inhibitor at the desired final concentration (usual range of 30 μM to 10 nM), the reaction is conducted by adding the ALK kinase at 180 ng/ml in 13 mM Tris reaction buffer pH 7.5 (SIGMA); 6.5 mM MgCl2 (MERCK); 0.65 mM DiThioThreitol (DTT) (ACROS); 39 mM sodium β-glycerophosphate (TCI); 0.65 mM sodium orthovanadate (SIGMA) and 250 μM ATP (SIGMA). Incubation is carried out for 30 minutes at 30° C. under shaking.
After three washings under shaking in 0.1% PBS/Tween-20 buffer (SIGMA), an anti-phosphotyrosine antibody coupled with HRP (UBI) diluted to 1/1000th in PBS/BSA buffer 5 mg/ml, is incubated for one hour under shaking. After three further washings in 0.1% PBS/Tween-20, the wells are incubated two minutes with 100 μl of SuperSignal ELISA mixture (PIERCE).
The signal is read in luminescent mode using a luminometer (MOLECULAR DEVICES SpectraMax M5e).

karpas 299 cells = assay: Measurement of inhibition of cell proliferation (Karpas), ATPlite; format: cell-based
Experimental: Measurement of Inhibition of Cell Proliferation (Karpas):
The antiproliferative activities of the compounds were measured using the ATPlite technique (Perkin Elmer).
The non-adhering cells (karpas 299) are seeded in 96-well plates (300 000 cells/ml) on Day 1 at a concentration compatible with logarithmic growth for 72 hours required for evaluation of the compounds. All the cells are treated on Day 1, then placed in an incubator at 37° C. under 5% CO2 atmosphere. Cell viability is evaluated on Day 4 by assay of released ATP, characteristic of viable cells. The IC50 values are determined by non-linear regression on the basis of a sigmoid model of dose/response relationship, Hill's slope coefficient being left variable, performed using GraphPad software sequence with the supplied algorithm.

Sequence of ALK kinase (Q9UM73 19-1620): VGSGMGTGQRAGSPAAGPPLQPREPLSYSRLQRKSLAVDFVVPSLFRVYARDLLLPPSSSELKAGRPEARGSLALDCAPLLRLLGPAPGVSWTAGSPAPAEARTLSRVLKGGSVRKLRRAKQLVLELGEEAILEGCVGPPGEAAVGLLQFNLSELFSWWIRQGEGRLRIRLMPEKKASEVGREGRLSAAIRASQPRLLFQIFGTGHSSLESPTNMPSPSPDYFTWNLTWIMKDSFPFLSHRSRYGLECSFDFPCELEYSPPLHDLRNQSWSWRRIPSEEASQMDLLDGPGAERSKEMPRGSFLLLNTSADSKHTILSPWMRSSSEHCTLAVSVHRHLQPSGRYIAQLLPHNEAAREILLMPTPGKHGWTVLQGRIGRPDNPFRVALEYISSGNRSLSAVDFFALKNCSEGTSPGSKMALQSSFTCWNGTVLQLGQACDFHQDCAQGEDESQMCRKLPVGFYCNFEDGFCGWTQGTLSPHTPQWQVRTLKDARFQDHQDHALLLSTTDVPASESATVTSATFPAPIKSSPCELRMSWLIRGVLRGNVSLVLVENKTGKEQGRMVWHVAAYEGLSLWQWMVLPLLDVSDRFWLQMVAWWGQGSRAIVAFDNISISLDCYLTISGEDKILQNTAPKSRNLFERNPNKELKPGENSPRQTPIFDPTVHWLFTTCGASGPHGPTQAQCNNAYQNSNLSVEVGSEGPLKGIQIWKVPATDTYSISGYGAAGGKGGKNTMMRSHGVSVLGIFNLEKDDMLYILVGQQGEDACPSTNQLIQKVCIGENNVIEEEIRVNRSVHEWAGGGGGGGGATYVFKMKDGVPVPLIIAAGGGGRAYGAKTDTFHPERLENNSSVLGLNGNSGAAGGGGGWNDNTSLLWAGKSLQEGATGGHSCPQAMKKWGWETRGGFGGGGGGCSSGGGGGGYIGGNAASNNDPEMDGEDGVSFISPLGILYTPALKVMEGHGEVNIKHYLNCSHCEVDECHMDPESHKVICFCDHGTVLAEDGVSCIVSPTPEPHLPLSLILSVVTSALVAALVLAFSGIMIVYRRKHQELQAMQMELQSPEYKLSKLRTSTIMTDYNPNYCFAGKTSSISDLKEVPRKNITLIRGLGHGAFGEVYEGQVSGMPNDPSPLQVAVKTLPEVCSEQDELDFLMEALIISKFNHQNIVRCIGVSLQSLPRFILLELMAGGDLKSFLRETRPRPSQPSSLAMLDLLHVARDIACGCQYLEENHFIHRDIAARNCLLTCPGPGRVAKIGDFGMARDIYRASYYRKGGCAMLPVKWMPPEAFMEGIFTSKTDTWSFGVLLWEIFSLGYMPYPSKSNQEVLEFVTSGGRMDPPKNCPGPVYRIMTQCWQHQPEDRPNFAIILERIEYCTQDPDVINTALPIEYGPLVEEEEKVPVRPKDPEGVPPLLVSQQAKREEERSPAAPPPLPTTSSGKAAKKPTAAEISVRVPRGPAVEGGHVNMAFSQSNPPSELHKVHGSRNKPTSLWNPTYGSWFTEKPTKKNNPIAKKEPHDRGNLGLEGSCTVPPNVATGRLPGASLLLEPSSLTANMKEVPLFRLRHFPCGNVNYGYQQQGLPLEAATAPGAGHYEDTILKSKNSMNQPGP

| SMILES | IC50 (ALK kinase) [nM] | IC50 (karpas 299 cells; Homo sapiens, KARPAS-299, 72 h) [nM] | IC50 (karpas 299 cells; 72 hours) [nM] |
| --- | --- | --- | --- |
| CN(C)CCCN(C)c1ccc(-c2c(C#N)c(-c3ccc(O)cc3F)nc3[nH]nc(N)c23)cc1 [Compound 191] | < 100 | 1000 to 10000 |  |
| N#Cc1c(-c2ccc(O)c(Cl)c2)nc2[nH]nc(N)c2c1-c1ccc(N2CCNCC2)cc1 [Compound 192] | < 100 | 1000 to 10000 |  |
| N#Cc1c(-c2ccc(O)cc2F)nc2[nH]nc(N)c2c1-c1ccc(N2CCNCC2)c(F)c1 [Compound 193] | < 100 | 1000 to 10000 |  |
| CN(C)CCCOc1ccc(-c2c(C#N)c(-c3ccc(O)cc3F)nc3[nH]nc(N)c23)cc1 [Compound 194] | < 100 | 100 to 1000 |  |
| N#Cc1c(-c2ccc(O)cc2F)nc2[nH]nc(N)c2c1-c1ccc(C2CCNCC2)cc1 [Compound 195] | < 100 | 1000 to 10000 |  |
| N#Cc1c(-c2ccc(O)cc2F)nc2[nH]nc(-c3cccs3)c2c1-c1ccc(N2CCNCC2)cc1 [Compound 196] | 1000 to 10000 | 100 to 1000 |  |
| N#Cc1c(-c2ccc(O)cc2F)nc2[nH]nc(-c3ccco3)c2c1-c1ccc(N2CCNCC2)cc1 [Compound 197] | < 100 | 100 to 1000 |  |
| COc1ccc(-c2n[nH]c3nc(-c4ccc(O)cc4F)c(C#N)c(-c4ccc(N5CCNCC5)cc4)c23)cc1 [Compound 198] | < 100 | 100 to 1000 |  |
| N#Cc1c(-c2cc(Cl)c(O)cc2F)nc2[nH]nc(N)c2c1-c1ccc(N2CCNCC2)cc1 [Compound 199] | < 100 | > 10000 |  |
| N#Cc1c(-c2ccc(O)cc2F)nc2[nH]nc(N)c2c1-c1ccc(N2CCC(N3CCCC3)CC2)cc1 [Compound 200] | < 100 | 100 to 1000 |  |
| N#Cc1c(-c2ccc(O)cc2F)nc2[nH]nc(-c3ccncc3)c2c1-c1ccc(N2CCNCC2)cc1 [Compound 201] | < 100 | > 10000 |  |
| COc1cc(-c2c(C#N)c(-c3ccc(O)cc3F)nc3[nH]nc(N)c23)ccc1N1CCNCC1 [Compound 202] | 100 to 1000 | > 10000 |  |
| N#Cc1c(-c2ccc(O)cc2F)nc2[nH]nc(N)c2c1-c1ccc(OCCCN2CCCCC2)cc1 [Compound 203] | 100 to 1000 | 1000 to 10000 |  |
| Cc1n[nH]c2nc(-c3ccc(O)cc3F)c(C#N)c(-c3ccc(N4CCNCC4)s3)c12 [Compound 204] | < 100 | 100 to 1000 |  |
| N#Cc1c(-c2ccc(O)cc2F)nc2[nH]nc(-c3ccccc3)c2c1-c1ccc(N2CCNCC2)cc1 [Compound 206] | < 100 | 100 to 1000 |  |
| Cc1n[nH]c2nc(-c3ccc(NS(C)(=O)=O)cc3F)c(C#N)c(-c3ccc(N4CCNCC4)cc3)c12 [Compound 208] | 1000 to 10000 | > 10000 |  |
| Cc1n[nH]c2nc(-c3ccc(O)cc3F)c(C#N)c(-c3ccc(N4CCNCC4)c([N+](=O)[O-])c3)c12 [Compound 209] | 100 to 1000 | 1000 to 10000 |  |
| CN(C)CCOc1ccc(-c2c(C#N)c(-c3ccc(O)cc3F)nc3[nH]nc(N)c23)cc1 [Compound 210] | 100 to 1000 | 1000 to 10000 |  |
| N#Cc1c(-c2ccc(O)cc2F)nc2[nH]nc(N)c2c1-c1ccc(OCCCN2CCNCC2)cc1 [Compound 211] | 100 to 1000 | > 10000 |  |
| N#Cc1c(-c2c(F)ccc(F)c2F)nc2[nH]nc(N)c2c1-c1ccc(N2CCNCC2)cc1 [Compound 212] | 1000 to 10000 | > 10000 |  |
| Cc1n[nH]c2nc(-c3ccc(O)cc3F)c(C#N)c(-c3ccc(OCCCN4CCNCC4)cc3)c12 [Compound 213] | < 100 | 1000 to 10000 |  |
| COC(=O)c1c(-c2ccc(O)cc2)nc2[nH]nc(C)c2c1-c1ccc(C)o1 [Compound 215] | < 100 | 100 to 1000 |  |
| Cc1n[nH]c2nc(-c3cc(Cl)ccc3F)c(C#N)c(-c3ccc(N4CCNCC4)cc3)c12 [Compound 217] | 1000 to 10000 | 1000 to 10000 |  |
| N#Cc1c(-c2ccc(O)cc2F)nc2[nH]nc(-c3ccc(F)cc3)c2c1-c1ccc(N2CCNCC2)cc1 [Compound 218] | < 100 | 1000 to 10000 |  |
| N#Cc1c(-c2ccccc2)nc2[nH]nc(-c3cccs3)c2c1-c1ccc(N2CCNCC2)cc1 [Compound 219] | 1000 to 10000 | 1000 to 10000 |  |
| N#Cc1c(-c2c(F)ccc(F)c2F)nc2[nH]nc(-c3cccs3)c2c1-c1ccc(N2CCNCC2)cc1 [Compound 221] | 100 to 1000 | 1000 to 10000 |  |

| SMILES | IC50 (ALK kinase) [nM] | IC50 (karpas 299 cells; Homo sapiens, KARPAS-299, 72 h) [nM] | IC50 (karpas 299 cells; 72 hours) [nM] |
| --- | --- | --- | --- |
| CNc1ccc(-c2nc3[nH]nc(C)c3c(-c3ccc(N4CCNCC4)cc3)c2C#N)c(F)c1 [Compound 222] | 1000 to 10000 | > 10000 |  |
| CCOC(=O)c1c(-c2ccc(O)cc2)nc2[nH]nc(C)c2c1-c1ccc(C)o1 [Compound 223] | < 100 | 100 to 1000 |  |
| Cc1n[nH]c2nc(-c3ccc(O)cc3F)c(C#N)c(-c3ccc(N4CCNCC4)c(N)c3)c12 [Compound 226] | 100 to 1000 | 1000 to 10000 |  |
| Cc1n[nH]c2nc(-c3c(F)ccc(Cl)c3F)c(C#N)c(-c3ccc(N4CCNCC4)cc3)c12 [Compound 228] | 100 to 1000 | 1000 to 10000 |  |
| CC(C)(C)c1n[nH]c2nc(-c3ccc(O)cc3F)c(C#N)c(-c3ccc(N4CCNCC4)cc3)c12 [Compound 230] | 100 to 1000 | 1000 to 10000 |  |
| N#Cc1c(-c2cccc(O)c2)nc2[nH]nc(-c3cccs3)c2c1-c1ccc(N2CCNCC2)cc1 [Compound 231] | 1000 to 10000 | 1000 to 10000 |  |
| N#Cc1c(-c2cc3cc[nH]c3cc2F)nc2[nH]nc(N)c2c1-c1ccc(N2CCNCC2)cc1 [Compound 233] | 100 to 1000 | > 10000 |  |
| Cc1n[nH]c2nc(-c3cc4cc[nH]c4cc3F)c(C#N)c(-c3ccc(N4CCNCC4)cc3)c12 [Compound 234] | 100 to 1000 | 1000 to 10000 |  |
| N#Cc1c(-c2ccc(O)cc2F)nc2[nH]nc(-c3ccc([N+](=O)[O-])cc3)c2c1-c1ccc(N2CCNCC2)cc1 [Compound 235] | 100 to 1000 | 1000 to 10000 |  |
| N#Cc1c(-c2ccc(O)cc2F)nc2[nH]nc(-c3ccc(-c4ccccc4)cc3)c2c1-c1ccc(N2CCNCC2)cc1 [Compound 236] | < 100 | 100 to 1000 |  |
| Cc1n[nH]c2nc(-c3ccc(O)cc3F)c(S(C)(=O)=O)c(-c3ccc(N4CCNCC4)cc3)c12 [Compound 238] | 100 to 1000 | 1000 to 10000 |  |
| Cc1n[nH]c2nc(-c3ccc(OC(=O)c4ccccc4)cc3F)c(C#N)c(-c3ccc(N4CCNCC4)cc3)c12 [Compound 239] | 100 to 1000 | 100 to 1000 |  |
| N#Cc1c(-c2c(F)ccc(F)c2F)nc2[nH]nc(-c3ccco3)c2c1-c1ccc(N2CCNCC2)cc1 [Compound 242] | 100 to 1000 | 1000 to 10000 |  |
| N#Cc1c(-c2ccc(O)cc2F)nc2[nH]nc(-c3ccc(C(F)(F)F)cc3)c2c1-c1ccc(N2CCNCC2)cc1 [Compound 244] | < 100 | 100 to 1000 |  |
| CCOC(=O)c1c(-c2c(F)ccc(F)c2F)nc2[nH]nc(-c3cccs3)c2c1-c1ccc(N2CCNCC2)cc1 [Compound 245] | 100 to 1000 | 1000 to 10000 |  |
| N#Cc1c(-c2cccc(O)c2)nc2[nH]nc(-c3cccs3)c2c1-c1ccc(N2CCNCC2)cc1 [Compound 247] | 100 to 1000 |  | 1000 to 10000 |
| Cc1c(C#N)c(-c2c(F)ccc(F)c2F)nc2[nH]nc(-c3ccc(N4CCNCC4)cc3)c12 [Compound 248] | 1000 to 10000 | 1000 to 10000 |  |
| Cc1cc(-c2nc3[nH]nc(-c4ccco4)c3c(-c3ccc(N4CCNCC4)cc3)c2C#N)ccc1O [Compound 251] | < 100 | 100 to 1000 |  |
| CCOC(=O)c1c(-c2c(F)ccc(F)c2F)nc2[nH]nc(C)c2c1-c1ccc(N2CCNCC2)cc1 [Compound 252] | 100 to 1000 | 1000 to 10000 |  |
| Cc1n[nH]c2nc(-c3c(F)ccc(F)c3F)c(C#N)c(-c3ccc(N4CCC(N)CC4)o3)c12 [Compound 253] | 100 to 1000 | 1000 to 10000 |  |
| Cc1n[nH]c2nc(-c3ccc(O)cc3Cl)c(C#N)c(-c3ccc(N4CCNCC4)cc3)c12 [Compound 254] | 100 to 1000 | 1000 to 10000 |  |
| N#Cc1c(-c2c(F)ccc(F)c2F)nc2[nH]nc(-c3ccco3)c2c1-c1ccc(N2CCOCC2)o1 [Compound 255] | 1000 to 10000 | 1000 to 10000 |  |
| N#Cc1c(-c2ccc(O)cc2Cl)nc2[nH]nc(-c3ccc(N4CCOCC4)cc3)c2c1-c1ccc(N2CCNCC2)cc1 [Compound 256] | < 100 | 1000 to 10000 |  |
| Cc1n[nH]c2nc(-c3ccc(O)cc3F)c(C#N)cc12 [Compound 260] | 100 to 1000 | 1000 to 10000 |  |
| Cc1n[nH]c2nc(-c3ccc(O)cc3F)c(C#N)c(-c3ccc(-c4ccc(S(N)(=O)=O)cc4)o3)c12 [Compound 270] | 100 to 1000 | > 10000 |  |
| N#Cc1c(-c2ccc(O)cc2F)nc2[nH]nc(N)c2c1-c1ccc(-c2ccc(S(N)(=O)=O)cc2)o1 [Compound 271] | 100 to 1000 | > 10000 |  |
